Measurements: patent US20250057873A1, “Intestinal Tumor Suppressor, PGE2 Production Inhibitor, and IL-22BP Production Promoter” (TOKYO UNIVERSITY OF SCIENCE FOUNDATION, priority 2021, published 2025)
Blank lines part the entries; values can stand above or below the molecule they belong to.

Columns and labels:
[1] = tested on: intestinal polyp-infiltrating cells; test: PGE2 stimulation of intestinal polyp-infiltrating cells of Apc^Min/+ mice, qPCR; assay type: cell-based, mouse; conditions: PGE2 20 hours
Protocol: FIG. 6i: Tumor-infiltrating cells of the Apc^Min/+ mice (n=2, cells that were pooled during collection) were collected, stimulated with indicated doses of PGE2 for 20 hours, and then the expression of indicated genes was measured by qPCR. The data are mean±SD of 3 wells.
(§1) Infiltrating cells in mouse/human colorectal tumor/non-tumor tissues (2×10^5) or mouse/human colorectal tumor/non-tumor tissue pieces (3 mm×3 mm cut) were cultured with Dectin-1 ligands Curdlan, OXCA, or laminarin, or with PGE2 stimulation for 20 h at 37° C. under 5% CO2 in 96-well flat-bottomed plates (Falcon, Becton Dickinson) in a volume of 0.2 ml RPMI containing 10% FBS and 1% streptomycin plus penicillin. After the culture, cells or tissues were collected and mRNA expression of tumor- or anti-tumor-associated genes was measured by qPCR described in Quantitative reverse transcription PCR section described later.
(§2) Total RNA was extracted with Mammalian Total RNA Miniprep kit (Sigma Aldrich). […]

[2] = tested on: colorectal polyps; test: PGE2 administration to DSS-treated Apc^Min/+Clec7a^-/- mice; assay type: in vivo, mouse
Protocol: (§3) FIG. 6e: 8-week-old Apc^Min/+Clec7a^−/− mice (n=3) were administered with 2% by mass of DSS for 1 week, and then were administered with PGE2 ([…]) or PBS intraperitoneally every other day for 4 weeks. After euthanization, generation of colorectal polyps in the Apc^Min/+Clec7a^−/− mice with or without PGE2 treatment was examined in comparison to that of the Apc^Min/+ mice (n=3/group).
as §3, with “6f:” for “6e:”, “without the” for “without”
FIG. 6g: 8-week-old Apc^Min/+Clec7a^−/− mice (n=3) were administered with 2% by mass of DSS for 1 week, and then were administered with PGE2 ([…]) or PBS intraperitoneally every other day for 4 weeks. After euthanization, populations of MHC-II^+CD11c^+DCs and MHC-II^−CD11b^+MDSCs in the polyps in the Apc^Min/+Clec7a^−/− mice were measured by flow cytometry (n=3/group).
FIG. 6h: 8-week-old Apc^Min/+Clec7a^−/− mice (n=3) were administered with 2% by mass of DSS for 1 week, and then administered with PGE2 ([…]) or PBS intraperitoneally every other day for 4 weeks. After euthanization, expression of indicated genes in the Apc^Min/+Clec7a^−/− mice was examined by qPCR (n=3/group).
Apc^Min/+ or Apc^Min/+Clec7a^−/− mice were normally raised in SPF condition for 19 to 21 weeks after being born, and polyps in small intestines emerged spontaneously. For the induction of colorectal tumor, same mice with 6 to 7 weeks old were treated with 1% by mass DSS for 1 week, and then were normally raised for another 4 to 5 weeks before sacrifice.

[3] = tested on: CRC tumor tissues; test: Human CRC tumor tissues cultured in the presence of PGE2, qPCR; assay type: cell-based
Protocol: FIG. 7i: Tumor tissues of CRC patients were collected, minced, and then cultured in the presence of PGE2 for 20 hours. Data are mean±SD of 3 wells. The data in (FIGS. 7g to 7i) are representative of two independent experiments. *p<0.05, **p<0.01, and ****p<0.0001.
as §1, §2

[4] = target: T1, COX-2 (Homo sapiens, UniProt P35354); conditions: cited from earlier work
T1 sequence (P35354 18-604): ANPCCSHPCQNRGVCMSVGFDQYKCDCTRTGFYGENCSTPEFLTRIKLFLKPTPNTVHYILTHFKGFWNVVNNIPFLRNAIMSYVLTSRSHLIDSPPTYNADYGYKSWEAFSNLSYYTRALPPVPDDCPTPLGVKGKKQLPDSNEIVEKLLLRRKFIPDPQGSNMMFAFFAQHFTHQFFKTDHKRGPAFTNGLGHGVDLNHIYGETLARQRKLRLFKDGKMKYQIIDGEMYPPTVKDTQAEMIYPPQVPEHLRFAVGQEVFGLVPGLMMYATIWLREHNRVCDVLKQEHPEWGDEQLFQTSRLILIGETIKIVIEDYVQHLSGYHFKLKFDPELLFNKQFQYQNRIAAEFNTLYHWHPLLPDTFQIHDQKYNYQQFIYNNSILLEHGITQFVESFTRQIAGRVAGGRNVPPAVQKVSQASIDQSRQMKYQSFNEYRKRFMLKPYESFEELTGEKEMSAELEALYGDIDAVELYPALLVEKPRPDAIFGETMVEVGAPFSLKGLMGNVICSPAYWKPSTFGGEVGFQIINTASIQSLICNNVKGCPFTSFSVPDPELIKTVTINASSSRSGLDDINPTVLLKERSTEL

[5] = target: T2, Dectin-1 (Mus musculus, UniProt Q6QLQ4); test: Stimulation of Apc^Min/+ polyp-infiltrating leukocytes / CD11b+ cells with Curdlan, with or without laminarin pre-treatment, qPCR; assay type: cell-based; conditions: laminarin 4 hours before Curdlan, polyp-infiltrating leukocytes
T2 construct: CD11b^+ cells and CD11c^+ cells were purified from colorectal polyps with autoMACS; endogenous in cells; host or cells: primary CD11b+/CD11c+ cells or all polyp-infiltrating cells from colorectal/intestinal polyps of WT (C57BL/6J, AOM-DSS) or Apc^Min/+ mice
T2 sequence (Q6QLQ4 1-244): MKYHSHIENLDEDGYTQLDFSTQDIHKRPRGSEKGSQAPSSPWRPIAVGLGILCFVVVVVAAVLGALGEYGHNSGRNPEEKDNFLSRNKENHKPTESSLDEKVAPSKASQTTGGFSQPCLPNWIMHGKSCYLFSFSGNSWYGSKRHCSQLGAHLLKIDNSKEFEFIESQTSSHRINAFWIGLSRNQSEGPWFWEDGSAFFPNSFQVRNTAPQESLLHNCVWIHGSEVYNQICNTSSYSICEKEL
Protocol: (§4) FIG. 5f: All polyp-infiltrating cells of the Apc^Min/+ mice were collected, and were stimulated with Curdlan for 20 hours, and then the expression of the genes involved in the PGE2 synthesis was measured by qPCR. A laminarin treatment was performed for 4 hours before the Curdlan treatment.
as §4, with “5g: Purified CD11b^+” for “5f: All”, “treatment. The data in (FIGS. 5a to 5g) are representative of two independent experiments and expressed as mean±SD. *p<0.05, **p<0.01, and ***p<0.001.” for “treatment.”
as §1, with “later. […]” for “later.”

[6] = target: T2, Dectin-1; test: Stimulation of mouse colorectal polyp CD11b+ and CD11c+ cells with OXCA, with or without laminarin pre-treatment, qPCR; assay type: cell-based; conditions: laminarin for 3 hours before OXCA 16 hours
Protocol: FIG. 2d: WT SPF mice were administered with AOM, followed by three cycles of DSS. After 11 weeks, the mice were sacrificed, and CD11b^+ cells and CD11c^+ cells were purified from colorectal polyps with autoMACS. The purified cells were stimulated with an agonistic β-glucan OXCA, or were treated with an antagonistic β-glucan laminarin for 3 hours followed by the stimulation with OXCA for 16 hours, and the expression of Il6 and Il1b was measured by qPCR. The data in (FIGS. 2a to 2d) are representative of two independent experiments, and the data in (FIGS. 2a, 2b, and 2d) are expressed as mean±SD. *p<0.05, **p<0.01, ***p<0.001, and ****p<0.0001.
FIG. 4h: C57BL/6J mice were administered with AOM, and were administered with DSS for three cycles. […] The cells were then stimulated with OXCA and expression of Il-22 bp was measured by qPCR. […] The data in (FIG. 4a and FIGS. 4d to 4h) are representative of two independent experiments, and the data in (FIGS. 4a, 4d, and 4f to 4h) are expressed as mean±SD. **p<0.01, ***p<0.001, and ****p<0.0001.
FIG. 11d: WT mice administered with AOM followed by DSS for three cycles for 12 weeks were sacrificed, and colon CD11b^+ and CD11c^+ myeloid-derived cells were purified by autoMACS. […] The data in (FIGS. 11a, 11c, and 11d) are expressed as mean±SD. *p<0.05, **p<0.01, and ***p<0.001. […]

[7] = tested on: AOM-DSS-induced colorectal polyps; test: AOM-3DSS colorectal tumor model, diet supplemented with 5% laminarin; assay type: in vivo, mouse
Protocol: FIG. 6a: Oral administration of laminarin suppresses tumor formation in the large intestine, and PGE2 administration promotes tumor formation. AOM was administered to C57BL/6J mice, and 5% by mass of laminarin-containing powdered food was administered (continued for 10 days/cycle) from 3 days before to the end of the one-week administration of DSS, for three cycles in total. At Week 11 from the first AOM administration, the mice were sacrificed and the generation of tumors in the large intestines was observed macroscopically (n=7/group).
FIG. 6b: AOM was administered to C57BL/6J mice, and 5% by mass of laminarin-containing powdered food was administered (continued for 10 days/cycle) from 3 days before to the end of the one-week administration of DSS, for three cycles in total. At Week 11 from the first AOM administration, the mice were sacrificed and the number of the colorectal polyps with indicated sizes was counted (n=7/group).
FIG. 6c: AOM was administered to C57BL/6J mice, and 5% by mass of laminarin-containing powdered food was administered (continued for 10 days/cycle) from 3 days before to the end of the one-week administration of DSS, for three cycles in total. The mice were sacrificed at Week 11 after the first AOM administration and the concentration of PGE2 in tissue homogenates was measured by the ELISA (n=7/group).
FIG. 6d: AOM was administered to C57BL/6J mice, and 5% by mass of laminarin-containing powdered food was administered (continued for 10 days/cycle) from 3 days before to the end of the one-week administration of DSS, for three cycles in total. The mice were sacrificed at Week 11 from the first AOM administration and an mRNA expression of CD11b (Itgam) was examined by qPCR (n=7/group). […]
Polyp and non-polyp tissues from mouse colon were harvested and were put into 2 ml tubes containing 500 μl lysis buffer for protein [RIPA buffer. […] After being centrifuged, supernatant of the tissue homogenate was collected and PGE2 concentration was measured by ELISA Development Kit for PGE2 (R&D systems, Minneapolis, USA). […]

[8] = after PGE2 administration, flow cytometry
[9] = after PGE2 administration, qPCR

expression of CD11b (Itgam), Arginase-1 (Arg1), Cyclin D1 (Ccnd1) and c-Myc (Myc) [2, 9]: enhanced
Molecule: CCCCC[C@H](O)/C=C/[C@H]1[C@H](O)CC(=O)[C@@H]1C/C=C\CCCC(=O)O [PGE2, prostaglandin E2]
Il-22 bp expression [1]: directly inhibited
expression of MDSC markers Arg1, CD11b and Nos2 [1]: directly induced
polyp number ([2]; PGE2 intraperitoneally every other day for 4 weeks, DSS-treated Apc^Min/+Clec7a^-/- mice): increased to the similar level of that in Apc^Min/+ mice
infiltration of CD11b+ MDSCs in polyps [2, 8]: promoted
infiltration of CD11c+ DCs and T cells in polyps [2, 8]: suppressed
Il-22 bp expression [2, 9]: suppressed
expression of CD33 and CD11B (ITGAM) ([3]; PGE2 20 hours in vitro): directly induced
human IL-22BP expression ([3]; PGE2 20 hours, dose-dependent): suppressed

Molecule: CC(=O)Oc1ccccc1C(=O)O [aspirin]
occurrence or progression of colorectal cancer and polyps [4]: can reduce

effect on Curdlan-induced Ptges3, Ptgs1 and Ptgs2 expression [5]: inhibited
effect on OXCA-induced Il6 and Il1b expression [6]: inhibited
Molecule: Laminarin
burden of colorectal polyps versus control mice ([7]; 5% laminarin diet during 3 cycles of DSS, WT mice, AOM-3DSS): significantly lower
intestinal PGE2 production (tissue homogenate, ELISA) ([7]; 5% laminarin diet, AOM-3DSS mice): suppressed
CD11b (Itgam) expression ([7]; 5% laminarin diet, AOM-3DSS mice, qPCR): reduction
